Laboratory results taken from patent publication US12435108B2, “Teixobactin analogue and use thereof” (SUNSHINE LAKE PHARMA CO., LTD., priority 2019, dated 2025).
Read-outs that look alike come from different tables or passages of the source.

Experiments:
MRSA (SA86) = conditions: agar plate two-fold dilution, CLSI, 35 °C, 18 h
Protocol: (§1) For the determination of the minimum inhibitory concentration (MIC), according to the CLSI standard, a two-fold dilution method with a plate and a Denlay multi-point inoculator were used to conduct the drug sensitivity test. The test bacteria were enriched with MH broth or brain heart infusion. The drug solution was diluted two-fold with MH broth to prepare various required concentrations, and appropriate amounts were added to the plates respectively. After the MH agar medium was melted, it was quantitatively poured into the plates containing the drug solution and mixed uniformly. The final concentrations of the samples were: 128, 64, 32, 16, 8, 4, 2, 1, 0.5, 0.25, 0.125, 0.063, 0.031, 0.016, 0.008, 0.004 μg/mL, respectively. The test bacteria were inoculated (inoculation amount was 10^4 cfu/point) and then incubated at constant temperature of 35 □. The results were observed after 18 h. The minimum concentration of the drug contained in the sterile growth plate was the minimum inhibitory concentration (MIC). Selection of strain types: MRSA (SA86 and SA88), MSSA (ATCC29213), Enterococcus (ET6) and Streptococcus faecalis (SF).

MRSA (SA88) = conditions: agar plate two-fold dilution, CLSI, 35 °C, 18 h
Protocol: as §1

MSSA (ATCC29213) [1] = conditions: Test Method 1: agar plate two-fold dilution, CLSI, 35 °C, 18 h
Protocol: as §1

Enterococcus (ET6) = conditions: agar plate two-fold dilution, CLSI, 35 °C, 18 h
Protocol: as §1

[2] = system: Streptococcus faecalis (SF); conditions: agar plate two-fold dilution, CLSI, 35 °C, 18 h
Protocol: as §1

MRSA (ATCC43300) = conditions: ATCC43300
Protocol: (§2) For the determination of the minimum inhibitory concentration (MIC), according to the CLSI standard, the minimum inhibitory concentration of 3 ATCC standard strains (2 strains of Staphylococcus aureus and 1 strain of Enterococcus faecium) was tested by two independent repeated experiments. Compounds were diluted two-fold in a 96-well plate from the highest detection concentration of 64 μg/mL. The test plate was placed in a common incubator and incubated at 35±2° C. for 20-24 hours. The growth of bacteria in the wells was observed and recorded. Inoculation method: 5-10 bacterial single colonies from the solid medium plate resuspended in 500 μL of 1.02×CAMHB, and then OD600 was adjusted to 0.1-0.15 with a spectrophotometer; then the bacteria were diluted 300-fold with 1.02×CAMHB to ˜2×10^5 CFU/ml (stepwise dilution, first 10-fold and then 30-fold), and the prepared bacterial inoculum was inoculated in 96-well plate within 15 minutes, the number of inoculated bacteria could be obtained by plate count. Colony count: the inoculated bacteria was diluted with liquid medium from 10^−1 to 10^−3 (such as 100 μL of bacterial inoculum+900 μL of 1.02×CAMHB); 100 μl of the above bacterial dilution was evenly spread on a TSA or TSA II plate, with 2 replicates per dilution. After the medium was absorbed by TSA or TSA II for 10 minutes, the plate was inverted and cultured at 35±2° C. for 24 hours in an incubator. Record of minimum inhibitory concentration and statistics of colony count: the minimum inhibitory concentration of each compound was recorded referring to the CLSI standard; the number of colonies of bacterial inoculum of different dilutions on the TSA or TSA II plate was counted and the amount of bacterial inoculation was calculated. Selection of strain types: MRSA (ATCC43300), MSSA (ATCC29213) and VRE (ATCC700221).

MSSA (ATCC29213) [3] = conditions: ATCC29213
Protocol: as §2

VRE (ATCC700221) = conditions: ATCC700221
Protocol: as §2

[4] = system: Mycobacterium smegmatis mc2155; test: MIC, 96-well dilution in 7H9 medium (Test Method 3); type: cell-based; conditions: 96-well plate, 35±2 °C, 48 hours, highest concentration 64 μg/mL

| SMILES | In vitro antibacterial activity MIC, MRSA SA86 (MRSA (SA86)) [µg/mL] | In vitro antibacterial activity MIC, MRSA SA88 (MRSA (SA88)) [µg/mL] | In vitro antibacterial activity MIC, MSSA(ATCC29213) (MSSA (ATCC29213) [1]) [µg/mL] | In vitro antibacterial activity MIC, Enterococcus (ET6) (Enterococcus (ET6)) [µg/mL] | In vitro antibacterial activity MIC, Streptococcus faecalis(SF) [2] [µg/mL] | In vitro antibacterial activity MIC, MRSA(ATCC43300) (MRSA (ATCC43300)) [µg/mL] | In vitro antibacterial activity MIC, MSSA(ATCC29213) (MSSA (ATCC29213) [3]) [µg/mL] | In vitro antibacterial activity MIC, VRE(ATCC700221) (VRE (ATCC700221)) [µg/mL] | In vitro antibacterial activity MIC, Mycobacterium smegmatis mc2155 [4] [µg/mL] |
| --- | --- | --- | --- | --- | --- | --- | --- | --- | --- |
| CC[C@H](C)[C@H](NC(=O)[C@H](N)Cc1ccc(-c2ccccc2)cc1)C(=O)N[C@@H](CO)C(=O)N[C@H](CCC(N)=O)C(=O)N[C@@H](C(=O)N[C@H](C(=O)N[C@@H](CO)C(=O)N[C@H]1C(=O)N[C@@H](C)C(=O)N[C@@]2(C[C@H]2CC(F)F)C(=O)N[C@@H]([C@@H](C)CC)C(=O)O[C@H]1C)[C@@H](C)CC)[C@@H](C)CC [Example 13] | 8 | 8 | 8 | 8 | 8 | – | – | – | – |
| CC[C@H](C)[C@H](NC(=O)[C@@H](Cc1ccccc1)NC)C(=O)N[C@@H](CO)C(=O)N[C@H](CCC(N)=O)C(=O)N[C@@H](C(=O)N[C@H](C(=O)N[C@@H](CO)C(=O)N[C@H]1C(=O)N[C@@H](C)C(=O)NC2(CC2)C(=O)N[C@@H]([C@@H](C)CC)C(=O)O[C@H]1C)[C@@H](C)CC)[C@@H](C)CC.O=C(O)C(F)(F)F [Example 5] | 4 | – | 4 | 8 | 8 | – | – | – | – |
| C=C[C@@H]1C[C@@]12NC(=O)[C@H](C)NC(=O)[C@H](NC(=O)[C@H](CO)NC(=O)[C@@H](NC(=O)[C@H](NC(=O)[C@@H](CCC(N)=O)NC(=O)[C@H](CO)NC(=O)[C@@H](NC(=O)[C@@H](Cc1ccccc1)NC)[C@@H](C)CC)[C@@H](C)CC)[C@@H](C)CC)[C@H](C)NC(=O)[C@H]([C@@H](C)CC)NC2=O.O=C(O)C(F)(F)F [Example 4] | 8 | 4 | 4 | 8 | 8 | – | – | – | – |
| CC[C@H](C)[C@H](NC(=O)[C@@H](Cc1ccccc1)NC)C(=O)N[C@@H](CO)C(=O)N[C@H](CCC(N)=O)C(=O)N[C@@H](C(=O)N[C@H](C(=O)N[C@@H](CO)C(=O)N[C@H]1C(=O)N[C@@H](C)C(=O)N[C@]2(C[C@@H]2CC(F)F)C(=O)N[C@@H]([C@@H](C)CC)C(=O)N[C@H]1C)[C@@H](C)CC)[C@@H](C)CC.O=C(O)C(F)(F)F [Example 2] | 4 | 2 | 4 | 4 | 8 | – | – | – | – |
| CC[C@H](C)[C@H](NC(=O)[C@@H](Cc1ccccc1)NC)C(=O)N[C@@H](CO)C(=O)N[C@H](CCC(N)=O)C(=O)N[C@@H](C(=O)N[C@H](C(=O)N[C@@H](CO)C(=O)N[C@H]1C(=O)N[C@@H](C)C(=O)NC2(CCC2)C(=O)N[C@@H]([C@@H](C)CC)C(=O)O[C@H]1C)[C@@H](C)CC)[C@@H](C)CC.O=C(O)C(F)(F)F [Example 6] | 8 | – | 8 | – | – | – | – | – | – |
| CC[C@H](C)[C@H](NC(=O)[C@@H](Cc1ccccc1)NC)C(=O)N[C@@H](CO)C(=O)N[C@H](CCC(N)=O)C(=O)N[C@@H](C(=O)N[C@H](C(=O)N[C@@H](CO)C(=O)N[C@H]1C(=O)N[C@@H](C)C(=O)NC2(CCCCC2)C(=O)N[C@@H]([C@@H](C)CC)C(=O)O[C@H]1C)[C@@H](C)CC)[C@@H](C)CC.O=C(O)C(F)(F)F [Example 8] | 8 | 4 | 8 | – | – | – | – | – | – |
| CC[C@H](C)[C@H](NC(=O)[C@@H](Cc1ccccc1)NC)C(=O)N[C@@H](CO)C(=O)N[C@H](CCC(N)=O)C(=O)N[C@@H](C(=O)N[C@H](C(=O)N[C@@H](CO)C(=O)N[C@H]1C(=O)N[C@@H](C)C(=O)NC2(CCCCCC2)C(=O)N[C@@H]([C@@H](C)CC)C(=O)O[C@H]1C)[C@@H](C)CC)[C@@H](C)CC.O=C(O)C(F)(F)F [Example 9] | 4 | – | 4 | 4 | 8 | – | – | – | – |
| CC[C@H](C)[C@H](NC(=O)[C@@H](Cc1ccccc1)NC)C(=O)N[C@@H](CO)C(=O)N[C@H](CCC(N)=O)C(=O)N[C@@H](C(=O)N[C@H](C(=O)N[C@@H](CO)C(=O)N[C@H]1C(=O)N[C@@H](C)C(=O)N[C@@]2(C[C@H]2CCN)C(=O)N[C@@H]([C@@H](C)CC)C(=O)O[C@H]1C)[C@@H](C)CC)[C@@H](C)CC.O=C(O)C(F)(F)F [Example 10] | 4 | 4 | 2 | 2 | 2 | – | – | – | – |
| CC[C@H](C)[C@H](NC(=O)[C@@H](Cc1ccc(-c2ccccc2)cc1)NC)C(=O)N[C@@H](CO)C(=O)N[C@H](CCC(N)=O)C(=O)N[C@@H](C(=O)N[C@H](C(=O)N[C@@H](CO)C(=O)N[C@H]1C(=O)N[C@@H](C)C(=O)NC2(CCCCCC2)C(=O)N[C@@H]([C@@H](C)CC)C(=O)O[C@H]1C)[C@@H](C)CC)[C@@H](C)CC.O=C(O)C(F)(F)F [Example 19] | – | – | – | – | – | 4 | 4 | 4 | – |
| CC[C@H](C)[C@H](NC(=O)[C@@H](Cc1ccccc1)NC)C(=O)N[C@@H](CO)C(=O)N[C@H](CCC(N)=O)C(=O)N[C@@H](C(=O)N[C@H](C(=O)N[C@@H](CO)C(=O)N[C@H]1C(=O)N[C@@H](C)C(=O)N[C@@]2(C[C@H]2CC(F)F)C(=O)N[C@@H]([C@@H](C)CC)C(=O)O[C@H]1C)[C@@H](C)CC)[C@@H](C)CC.O=C(O)C(F)(F)F [Example 1] | 4 | – | 2 | 4 | – | – | – | – | 8 |
| CC[C@H](C)[C@H](NC(=O)[C@@H](Cc1ccc(-c2ccc(Oc3ccccc3)cc2)cc1)NC)C(=O)N[C@@H](CO)C(=O)N[C@H](CCC(N)=O)C(=O)N[C@@H](C(=O)N[C@H](C(=O)N[C@@H](CO)C(=O)N[C@H]1C(=O)N[C@@H](C)C(=O)NC2(CC2)C(=O)N[C@@H]([C@@H](C)CC)C(=O)O[C@H]1C)[C@@H](C)CC)[C@@H](C)CC.O=C(O)C(F)(F)F [Example 25] | – | – | – | – | – | 4 | 4 | 4 | – |
| CC[C@H](C)[C@H](NC(=O)[C@@H](Cc1ccc(-c2ccccc2)cc1)NC)C(=O)N[C@@H](CO)C(=O)N[C@H](CCC(N)=O)C(=O)N[C@@H](C(=O)N[C@H](C(=O)N[C@@H](CO)C(=O)N[C@H]1C(=O)N[C@@H](C)C(=O)NC2(CC2)C(=O)N[C@@H]([C@@H](C)CC)C(=O)O[C@H]1C)[C@@H](C)CC)[C@@H](C)CC.O=C(O)C(F)(F)F [Example 18] | – | – | – | – | – | 2 | 2 | 2 | – |
| CC[C@H](C)[C@H](NC(=O)[C@@H](Cc1csc2ccccc12)NC)C(=O)N[C@@H](CO)C(=O)N[C@H](CCC(N)=O)C(=O)N[C@@H](C(=O)N[C@H](C(=O)N[C@@H](CO)C(=O)N[C@H]1C(=O)N[C@@H](C)C(=O)NC2(CCCCCC2)C(=O)N[C@@H]([C@@H](C)CC)C(=O)O[C@H]1C)[C@@H](C)CC)[C@@H](C)CC.O=C(O)C(F)(F)F [Example 17] | – | – | – | – | – | 4 | 4 | 8 | – |
| CC[C@H](C)[C@H](NC(=O)[C@@H](Cc1ccc(-c2ccc(-c3ccccc3)cc2)cc1)NC)C(=O)N[C@@H](CO)C(=O)N[C@H](CCC(N)=O)C(=O)N[C@@H](C(=O)N[C@H](C(=O)N[C@@H](CO)C(=O)N[C@H]1C(=O)N[C@@H](C)C(=O)NC2(CC2)C(=O)N[C@@H]([C@@H](C)CC)C(=O)O[C@H]1C)[C@@H](C)CC)[C@@H](C)CC.O=C(O)C(F)(F)F [Example 21] | – | – | – | – | – | 8 | 8 | 8 | – |
| C=C[C@H]1C[C@]12NC(=O)[C@H](C)NC(=O)[C@H](NC(=O)[C@H](CO)NC(=O)[C@@H](NC(=O)[C@H](NC(=O)[C@@H](CCC(N)=O)NC(=O)[C@H](CO)NC(=O)[C@@H](NC(=O)[C@@H](Cc1ccc(-c3ccccc3)cc1)NC)[C@@H](C)CC)[C@@H](C)CC)[C@@H](C)CC)[C@H](C)OC(=O)[C@H]([C@@H](C)CC)NC2=O.O=C(O)C(F)(F)F [Example 20] | – | – | – | – | – | 4 | 4 | 4 | – |
| CC[C@H](C)[C@H](NC(=O)[C@@H](Cc1ccc2ccccc2c1)NC)C(=O)N[C@@H](CO)C(=O)N[C@H](CCC(N)=O)C(=O)N[C@@H](C(=O)N[C@H](C(=O)N[C@@H](CO)C(=O)N[C@H]1C(=O)N[C@@H](C)C(=O)NC2(CC2)C(=O)N[C@@H]([C@@H](C)CC)C(=O)O[C@H]1C)[C@@H](C)CC)[C@@H](C)CC.O=C(O)C(F)(F)F [Example 23] | – | – | – | – | – | 2 | 4 | 4 | – |
